Earlier results as cited in patent publication US20230046815A1, “Wound honey with a pump dispenser” (priority 2021, published 2023).

Tested on: Salmonella sp.
Conditions: single agent

Structure (SMILES) | Minimal Bactericidal Concentration [%]
O=C(O)CC(O)(CC(=O)O)C(=O)O [Citric Acid] | 5
OO [Hydrogen Peroxide] | 3.12
